Source: patent US20200390753A1, “COMBINATION THERAPY USING ENANTIOPURE, OXY-SUBSTITUTED, DEUTERIUM-ENRICHED 5-(BENZYL)-5-DEUTERO-THIAZOLIDINE-2,4-DIONES FOR TREATMENT OF MEDICAL DISORDERS” (priority 2015, published 2020)
Where two headings read alike, the source gives them in different places.

How the values were obtained:
[1] = for k RS: enantiomerization rate constant h-R-pio to h-S-pio / k SR: enantiomerization rate constant h-S-pio to h-R-pio: 5 M (sic)
[2] = for k RS: enantiomerization rate constant h-R-pio to h-S-pio / k SR: enantiomerization rate constant h-S-pio to h-R-pio: C57BL/6, mouse, 5 M (sic)
C2C12 cells = experiment: Mitochondrial respiration (mitochondrial stress test, maximal respiration) in C2C12 cells; type: cell-based; conditions: 30 µM for 15, 30, or 90 min, vs vehicle-treated cells; 10 mM sodium pyruvate
Source text: […]. […] […].

db/db mice = experiment: db/db mouse model of Type II diabetes, 10-day daily oral dosing; type: in vivo; conditions: oral daily 10 days, h-rac-pio 30 mg/kg; for decrease of cytokines IL-1p, IL-6, and TNF-α / decrease of serum amyloid A / effect on non-essential fatty acids (decrease compared with h-rac-pio) / effect on non-fasted blood glucose: d-R-pio 20 mg/kg; for effect on adiponectin / effect on non-essential fatty acids (decrease compared with h-rac-pio) / effect on non-fasted blood glucose: d-S-pio 20 mg/kg
Protocol: Quantitative results were analyzed by statistical methods using, as appropriate, one- or two-way ANOVA or Kruskal-Wallis tests for differences followed by Sidak's, Dunnett's, or Dunn's post-test to determine differences vs. vehicle-treated control animals. All graphs were generated with GraphPad Prism version 6.0.2 (GraphPad Software, Inc., La Jolla, Calif.).

[3] = Body weight gain in male C57BL/6J mice on a standard diet; type: in vivo; conditions: twice daily oral gavage 11 days; overall daily dose h-rac-pio 30 mg/kg, d-S-pio 15 mg/kg, d-R-pio 15 mg/kg
Protocol: Male C57BL/6J mice (about 28 g body weight) were acclimated singly-housed for one week to a reverse light/dark cycle with free access to water and standard maintenance diet. Animals were then handled daily for one week followed by another 7 days of twice daily dosing with vehicle (0.5% methylcellulose in water) by oral gavage. […] Body weights were measured twice daily, prior to each dosing, to adjust individual dosing volumes to actual body weights.

[4] = target: T1, human recombinant monoamine oxidase B (Homo sapiens, UniProt P27338); experiment: Monoamine oxidase B (MAO-B) inhibition, luminescence; type: biochemical
T1 sequence (P27338 1-520): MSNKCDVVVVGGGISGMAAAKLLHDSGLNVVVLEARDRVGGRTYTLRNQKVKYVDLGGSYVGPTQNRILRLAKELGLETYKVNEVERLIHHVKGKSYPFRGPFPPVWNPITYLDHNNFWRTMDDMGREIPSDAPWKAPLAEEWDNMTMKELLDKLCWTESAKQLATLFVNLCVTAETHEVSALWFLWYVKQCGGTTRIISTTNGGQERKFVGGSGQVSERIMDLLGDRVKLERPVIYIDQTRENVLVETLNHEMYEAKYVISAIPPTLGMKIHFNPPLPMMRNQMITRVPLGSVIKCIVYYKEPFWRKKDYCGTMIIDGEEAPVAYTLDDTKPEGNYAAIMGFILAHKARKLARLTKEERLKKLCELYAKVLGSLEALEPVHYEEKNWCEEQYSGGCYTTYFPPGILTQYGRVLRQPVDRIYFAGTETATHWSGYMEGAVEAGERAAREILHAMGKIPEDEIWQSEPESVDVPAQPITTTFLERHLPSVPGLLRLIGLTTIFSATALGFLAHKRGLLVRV
Protocol: The mixtures were incubated at 22° C. for 5 min. Substrate (D-luciferin derivative) was added, and then the mixture was incubated at 37° C. for 60 min. The reaction was stopped by addition of the detection reagent containing luciferase. Luminescence was read after standing for 60 min at room temperature.
Results were expressed as a percentage of the luminescence of the control (enzyme+substrate). IC50 values were obtained by fitting experimental data (mean % luminescence as function of concentration) to the Hill equation with variable slope using non-linear regression analysis.

| Compound | k RS: enantiomerization rate constant h-R-pio to h-S-pio ([1]; human) | k SR: enantiomerization rate constant h-S-pio to h-R-pio ([1]; human) | k RS: enantiomerization rate constant h-R-pio to h-S-pio [2] | k SR: enantiomerization rate constant h-S-pio to h-R-pio [2] | effect on maximal respiration (oxygen consumption rate) (C2C12 cells) | decrease of cytokines IL-1p, IL-6, and TNF-α (db/db mice; vs vehicle) | decrease of serum amyloid A (db/db mice; vs vehicle) | effect on adiponectin (db/db mice; vs vehicle) | percent body weight difference versus day 1, compared to vehicle [3] | effect on non-essential fatty acids (decrease compared with h-rac-pio) (db/db mice) | effect on non-fasted blood glucose (db/db mice) | further results |
| --- | --- | --- | --- | --- | --- | --- | --- | --- | --- | --- | --- | --- |
| [2H]C1(Cc2ccc(OCCc3ccc(CC)cn3)cc2)SC(=O)NC1=O (racemic) [d-rac-pio] | – | – | – | – | – | – | – | – | – | – | – | t1/2 of h-R-pio (RS*) from averaged kRS ([1]; human, plasma): 96 min; t1/2 of h-S-pio (SR*) from averaged kSR ([1]; human, plasma): 96 min; t1/2 of d-S-pio (k=kDSR+kDSS) ([2]; mouse, plasma): 36 min; t1/2 of h-R-pio (RS*) from averaged kRS ([2]; mouse, plasma): 54 min; t1/2 of h-S-pio (SR*) from averaged kSR ([2]; mouse, plasma): 45 min |
| CCc1ccc(CCOc2ccc(CC3SC(=O)NC3=O)cc2)nc1 (racemic) [h-rac-pio, rac-5-({p-[2-(5-Ethyl-2-pyridyl)ethoxy]phenyl}methyl)-1,3-thiazolidine-2,4-dione, reference compound] | – | – | – | – | inhibited maximal respiration | trending | statistically significant | significantly increased | statistically significant increase | – | – | effect on insulin (db/db mice; vs vehicle): significantly decreased |
| [2H][C@]1(Cc2ccc(OCCc3ccc(CC)cn3)cc2)SC(=O)NC1=O [d-R-pio, (R)-5-({p-[2-(5-Ethyl-2-pyridyl)ethoxy]phenyl}methyl)-(5-^2H)-1,3-thiazolidine-2,4-dione] | – | – | – | – | inhibited maximal respiration | trending | statistically significant | – | did not increase | a similar trend was observed | decreased non-fasted blood glucose to approximately the same extent as h-rac-pio | difference in inhibition efficacy between d-R-pio and d-S-pio [4]: greater than 5 fold |
| [2H][C@@]1(Cc2ccc(OCCc3ccc(CC)cn3)cc2)SC(=O)NC1=O [d-S-pio, (S)-5-({p-[2-(5-Ethyl-2-pyridyl)ethoxy]phenyl}methyl)-(5-^2H)-1,3-thiazolidine-2,4-dione] | – | – | – | – | no significant measurable effect | – | – | significantly increased | statistically significant increase | a similar trend was observed | decreased non-fasted blood glucose to approximately the same extent as h-rac-pio | half-life of d-S-pio compared with h-S-pio ([1]; plasma): approximately the same as the half-life for h-S-pio |

More lines, main results first:

| k RS: enantiomerization rate constant h-R-pio to h-S-pio ([1]; human) | k SR: enantiomerization rate constant h-S-pio to h-R-pio ([1]; human) | k RS: enantiomerization rate constant h-R-pio to h-S-pio [2] | k SR: enantiomerization rate constant h-S-pio to h-R-pio [2] | Compound | effect on maximal respiration (oxygen consumption rate) (C2C12 cells) | decrease of cytokines IL-1p, IL-6, and TNF-α (db/db mice; vs vehicle) | decrease of serum amyloid A (db/db mice; vs vehicle) | effect on adiponectin (db/db mice; vs vehicle) | percent body weight difference versus day 1, compared to vehicle [3] | effect on non-essential fatty acids (decrease compared with h-rac-pio) (db/db mice) | effect on non-fasted blood glucose (db/db mice) | further results |
| --- | --- | --- | --- | --- | --- | --- | --- | --- | --- | --- | --- | --- |
| 0.447 h⁻¹ | 0.439 h⁻¹ | 0.694 h⁻¹ | 0.867 h⁻¹ | CCc1ccc(CCOc2ccc(C[C@H]3SC(=O)NC3=O)cc2)nc1 [h-R-pio] | – | – | – | – | – | – | – | – |
| 0.434 h⁻¹ | 0.427 h⁻¹ | 0.792 h⁻¹ | 0.979 h⁻¹ | CCc1ccc(CCOc2ccc(C[C@@H]3SC(=O)NC3=O)cc2)nc1 [h-S-pio] | – | – | – | – | – | – | – | – |
